This is an account of results in PubChem BioAssay (NCI).

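All cell lines were grown in 96-well plates and treated with compound for 48 hours. Abbreviation: GI50, concentration required for 50% inhibition of growth. The concentration for full growth arrest is given as TGI.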 A value given as a limit tells only on which side of the number the result lay.

Holding throughout (experiment): NCI tumour cell line growth inhibition, 48 h
Assay [1] deals with RXF 393 renal.
Assay [2] relates to KM12 colon.
The subject of assay [3] is TK-10 renal.
Assay [4] deals with HT29 colon.
Assay [5] has as its system SNB-75 CNS.
Assay [6] relates to U251 CNS.
In assay [7] the test system is OVCAR-5 ovarian.
The subject of assay [8] is SF-268 CNS.
Assay [9] has as its system MALME-3M melanoma.
The subject of assay [10] is MCF7 breast.

`CC1=C(Cl)C=CP(=O)(OC(C)C)C1` (stereo not given): the TGI was over 100 µM in [1]; over 100 µM in assay [2]; over 100 µM in assay [3]; over 100 µM in [4]; 47.3 µM in assay [5]; over 100 µM in assay [6]. The TGI in assay [7], in assay [8] and in assay [9] was over 100 µM in each case.
Regarding `C=C1C2CC(OC(C)=O)C3(C)C(c4ccoc4)OC(=O)[C@@H](O)[C@]13OC1C[C@H](OC(C)=O)C(C)(C)[C@H](CC(=O)OC)[C@]12C` (stereo not given in full), the TGI in assay [2], in assay [3], in assay [4], in assay [5] and in assay [6] was over 100 µM in each case.
In the case of `COc1ccc2c(c1)[n+]([O-])c(-c1ccc(C)cc1)c(N)[n+]2[O-]`, the TGI in [2], in assay [4], in assay [5], in assay [6], in assay [7] and in assay [9] was over 100 µM in each case.
As to `C#CC1(O)c2ccccc2C(=O)c2ccccc21`, the TGI in assay [1], in assay [2], in assay [3], in assay [4], in assay [6] and in assay [7] was over 100 µM in each case. For the same compound, the TGI in [8] and in assay [9] was over 100 µM each time.
For `C/C(=N\NC(=S)N1CC2CCC(CC2)C1)c1cccc(C)n1`, the TGI in assay [1] is 14.8 µM; in [2], 14.8 µM; in assay [3], 16.1 µM; in assay [4], 11.4 µM; in assay [5], 13.1 µM; in assay [6], 11.8 µM. Further, the results for the TGI in assay [7], in [8] and in assay [9] were 15.9 µM, 13 µM and 17.8 µM, respectively. For the same compound, the GI50 in [3] was 0.786 µM; in assay [4] it was under 0.0001 µM; in [6], 0.408 µM; in assay [7] it was under 0.0001 µM; in [9] it was 0.605 µM.
Turning to `COc1ccc(-c2cc(-c3cc(Cl)cc(Br)c3O)[nH]c(=O)n2)cc1`, the TGI in [1] worked out at 31.7 µM; in assay [2], 41.3 µM; in [3], 47.3 µM; in [4], 39.4 µM; in assay [5], 38.3 µM; in assay [6], 31.3 µM. Further, the figures for the TGI in assay [8] and in [9] were 50 µM and 42.3 µM, respectively.
As to `Cc1ccc(NC(=S)SCCC(=O)O)cc1`, the TGI in assay [1], in [2], in [3], in assay [4], in [6] and in assay [7] was over 100 µM in each case. For the same compound, the TGI in assay [8] is over 100 µM.
On to `OCCNCCCOc1ccc2ncnc(Nc3ccc(Oc4cccc(C(F)(F)F)c4)c(Cl)c3)c2c1`, for which the GI50 in assay [2] was 1.77 µM; in assay [3], 1.13 µM; in assay [5], 1.48 µM; in assay [7] it was 1.65 µM; in assay [9], 1.66 µM. Besides, the TGI in [2] amounted to 3.26 µM; in assay [3], 2.54 µM; in assay [5], 2.86 µM; in [7], 3.24 µM; in assay [9], 3.24 µM.
Take `CC(=O)[CH-]C(=O)c1ccccc1.CC(=O)[CH-]C(=O)c1ccccc1.Cl.[O-]c1ccccn1.[O-]c1ccccn1.[Ti+4]`: the GI50 in [2], in assay [4], in assay [5], in [6], in [7] and in assay [8] was over 100 µM throughout. Also, in assay [9], the GI50 was over 100 µM. For the same compound, the TGI in assay [2], in assay [4], in assay [5], in [6], in assay [7] and in [8] was over 100 µM in each case. In addition, in assay [9], the TGI was over 100 µM.
Turning to `Cc1cc(N2CCCC2)nc(NCc2cc(Nc3ccnc4cc(Cl)ccc34)ccc2F)n1`, the GI50 in assay [1] is 1.43 µM; in assay [2], 1.52 µM; in [10], 0.216 µM; in assay [3], 2.14 µM; in assay [4] it was 0.286 µM; in assay [6], 1.5 µM. Also, in assay [8], the GI50 is 1.36 µM. Also, the TGI in assay [1] stood at 2.87 µM; in assay [2] it was 3.01 µM; in [10] it was 1.07 µM; in [3], 3.72 µM; in assay [4] it was 1.23 µM; in [6] it was 2.84 µM. For the same compound, the TGI in assay [8] was determined as 3.14 µM.
On to `CC12CO[C@@](C)(CC(S(=O)(=O)c3ccccc3)C1)O2` (stereo not given in full), for which the TGI in assay [1], in assay [2], in [4], in assay [5], in [6] and in assay [7] was over 100 µM throughout. For the same compound, the TGI in [8] and in [9] was over 100 µM throughout.
Regarding `COC(=O)C1C=NNC1C(=O)OC` (stereo not given), the TGI in assay [1], in [2], in [3], in assay [4], in assay [5] and in [6] was over 100 µM throughout. The TGI in assay [7], in assay [8] and in assay [9] was over 100 µM throughout.
For `O=S1(=O)CCCS(=O)(=O)C(c2ccccc2)=C1c1ccccc1`, the TGI in assay [2] is 79 µM; in [3], over 100 µM; in assay [4] it was over 100 µM; in assay [5] it was over 100 µM; in assay [6], over 100 µM; in assay [7] it was over 100 µM. Moreover, the TGI in [8] and in assay [9] was over 100 µM throughout.
`CCN(CC)C(=O)N1CCN(C=S)CC1`: the TGI in assay [1], in [2], in [3], in assay [4], in assay [5] and in assay [6] was over 100 µM in each case. Also, the TGI in assay [7], in assay [8] and in assay [9] was over 100 µM each time.
With `Cc1ccc(-c2cc(=O)c3cc(C)c(C)c(C(=O)O)c3o2)cc1N`, the TGI in assay [1], in [2], in assay [3], in assay [4], in assay [5] and in assay [6] was over 100 µM throughout. The TGI in assay [7], in assay [8] and in assay [9] was over 100 µM each time.
Consider `COc1c(-c2ccc(O)c(O)c2)oc2c(O)c(O)cc(O)c2c1=O`, for which the TGI in assay [2] was over 100 µM; in assay [10], 76.1 µM; in [3] it was over 100 µM; in assay [4], 39.8 µM; in [6] it was over 100 µM; in [7], over 100 µM. In assay [9], this compound gave a TGI of over 100 µM.
For the compound `CCOC(=N)CC(=O)Nc1cccc(Cl)c1`, the TGI in [1], in assay [2], in assay [3], in assay [4], in assay [5] and in assay [6] was over 100 µM each time. The TGI in assay [7], in assay [8] and in assay [9] was over 100 µM throughout.
Take `O=C1Nc2ccccc2/C1=C\c1nc(C2CCN(S(=O)(=O)c3ccc(F)cc3)CC2)n2ccccc12`: the GI50 in assay [10] is 5.72 µM; in [3], 2.41 µM; in assay [4], over 100 µM; in assay [6], 2.53 µM; in [7], 5.16 µM; in assay [8] it was 1.9 µM. The TGI in [10] is over 100 µM; in [3] it was 8.62 µM; in assay [4] it was over 100 µM; in assay [6], 11.4 µM; in assay [7] it was over 100 µM; in assay [8], 13.8 µM.
Turning to `O=C(CC1(O)C(=O)Nc2ccccc21)c1ccc(O)cc1` (stereo not given), the TGI in [1], in assay [2], in assay [3], in [4], in [5] and in assay [6] was over 100 µM each time. In addition, the TGI in [7], in [8] and in assay [9] was over 100 µM in each case.
In the case of `Clc1ccc2nc(-c3ccccc3)nc(Cl)c2c1`, the TGI was 48.6 µM in [1]; over 100 µM in [2]; 63.9 µM in assay [3]; over 100 µM in [4]; 59.5 µM in assay [5]; over 100 µM in assay [6]. The TGI in assay [7] was over 100 µM; in assay [8], over 100 µM; in [9], 95.1 µM.
As for `CC(CNCCCNCCNCCCNCO)[N+](=O)[O-]` (stereo not given), the TGI in assay [1] came out at 29.2 µM; in assay [2], 29.7 µM; in assay [3] it was 8.6 µM; in [4], 41.7 µM; in [5] it was 35.3 µM; in assay [6] it was 29.5 µM. The results for the TGI in assay [7], in [8] and in [9] were 26.8 µM, 29.6 µM and 4.22 µM, respectively.
With `O=S(=O)([O-])[O-].[Cl-].[NH2-].[NH2-].[NH2-].[NH2-].[Ru+3].c1ccncc1`, the TGI in assay [2], in assay [3], in [4], in [5], in assay [6] and in assay [7] was over 100 µM each time. In addition, the TGI in assay [8] and in assay [9] was over 100 µM each time.
Regarding `Cc1cccc(N2C(=O)C(=O)C(c3nc4ccccc4s3)/C(=N/NC(=S)NN)C2=O)c1C` (stereo not given), the TGI in assay [1], in assay [2], in assay [3], in assay [5], in [6] and in assay [7] was over 100 µM throughout. In addition, the TGI in assay [8] and in assay [9] was over 100 µM throughout.
For the compound `CCOC(=O)C1=C(C)N(NC(N)=O)C(C)(O)C12CCOC2=O` (stereo not given), the TGI in [2], in assay [4], in [5], in [6], in [7] and in [8] was over 100 µM each time. In [9], this compound registered a TGI of over 100 µM.
With `O=[N+]([O-])c1ccc(/C=C/c2csnn2)cc1`, the TGI in assay [1], in assay [2], in assay [3], in [4], in assay [6] and in assay [7] was over 100 µM in each case. The TGI in assay [8] and in assay [9] was over 100 µM in each case.
In the case of `CC(/C=C/c1ccccc1)=N\NC(N)=S`, the TGI in assay [2], in [10], in [3], in [4], in [6] and in assay [7] was over 100 µM throughout. Also, the TGI in [8] and in [9] was over 100 µM each time.
On to `COC(=O)N/N=C(/CCC(=O)Nc1ccc(C)c(C)c1)CC(=O)C(C)(C)C`, for which the TGI in assay [1], in [2], in [3], in [4], in assay [5] and in assay [6] was over 100 µM each time. Further, the TGI in assay [7], in [8] and in assay [9] was over 100 µM throughout.
In the case of `O=[N+]([O-])c1ccccc1C=NC12CC3CC(CC(C3)C1)C2`, the TGI in assay [1], in assay [2], in assay [3], in [4], in assay [5] and in assay [6] was over 100 µM in each case. Besides, the TGI in assay [7], in assay [8] and in assay [9] was over 100 µM each time.
`O=[N+]([O-])c1cc(Cl)ccc1OCc1ccccc1`: the TGI was over 100 µM in assay [1]; over 100 µM in [2]; over 100 µM in assay [3]; 84.1 µM in assay [4]; 90.8 µM in [5]; over 100 µM in assay [6]. Moreover, the TGI in assay [8] and in [9] was over 100 µM in each case.
On to `COc1cc2c(cc1OC)NC(=O)NC(Cc1ccc3c(c1)OCO3)CC2` (stereo not given), for which the TGI in assay [1], in [2], in assay [3], in assay [5], in assay [7] and in assay [8] was over 100 µM each time. The compound further gave a TGI in assay [9] of over 100 µM.
